The assay deals with T1, cloned human dopamine D3 receptors (Homo sapiens, UniProt P35462).
T1 construct: expressed in transfected cells; membrane homogenate
Put plainly: [N-Methyl-3H]Spiroperidol binding to cloned human dopamine D3 receptors. Conditions: read-out: D3 Ki. A digest of the protocol: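 Stably transfected CHO cells expressing cloned human D3 receptor were used as membranes homogenized in 10% DMSO. Ligand was [N-methyl-3H]spiroperidol displacement.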

The structures appear in SMILES notation.

T1 sequence (P35462 whole entry): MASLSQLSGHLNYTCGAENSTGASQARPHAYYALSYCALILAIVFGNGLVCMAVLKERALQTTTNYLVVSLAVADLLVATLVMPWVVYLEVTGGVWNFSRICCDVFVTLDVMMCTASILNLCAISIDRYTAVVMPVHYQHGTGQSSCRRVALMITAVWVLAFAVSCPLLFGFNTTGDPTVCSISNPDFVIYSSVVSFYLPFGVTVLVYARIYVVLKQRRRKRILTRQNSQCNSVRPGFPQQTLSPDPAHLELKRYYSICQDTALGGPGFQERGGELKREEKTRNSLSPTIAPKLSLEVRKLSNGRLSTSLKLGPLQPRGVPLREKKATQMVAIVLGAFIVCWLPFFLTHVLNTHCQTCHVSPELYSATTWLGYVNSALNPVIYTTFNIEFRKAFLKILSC

As a reminder, the Ki is the dissociation constant of the complex between target and ligand, obtained from inhibition or displacement. With `Cn1nc(C2CCN(C[C@@H]3C[C@H]3C(=O)N3CCC(Cn4ccnc4)CC3)CC2)c2cccc(C(F)(F)F)c21` [A002329095], the inhibitory constant (Ki) is 26.5 nM.

Take `O=C(NCCN1CCCCC1)[C@@H]1C[C@H]1CN1CCN(c2csc3cc(C(F)(F)F)ccc23)CC1` [compound 831885]: the Ki was determined as 35.3 nM.

`CCC1CCC(NC(=O)C2CC2CN2CCC(n3c(=O)[nH]c4ccccc43)CC2)CC1` (racemic) [compound 827250]: the Ki turned out to be 45.2 nM.

`O=C(NC1CCN(Cc2cc(F)ccc2F)CC1)[C@@H]1C[C@H]1CN1CCN(c2nn(-c3ccc(OC(F)(F)F)cc3)c3ccsc23)CC1` [A002437082]: the Ki turned out to be 9.23 nM.

For the molecule `O=C(C1CC1CN1CCC(c2noc3ccsc23)CC1)N1CCN(S(=O)(=O)c2ccc(-c3ccccc3)cc2)CC1` (racemic) [compound 831836], the Ki came out at 94.3 nM.

Turning to `O=C(NC1CCNCC1)[C@@H]1C[C@H]1CN1CCC(c2csc3cc(C(F)(F)F)ccc23)CC1` [A002287513], the Ki is 3.57 nM.

Regarding `O=C(C1CC1CN1CCC(c2noc3ccsc23)CC1)N1CCN(C2CCCC2)CC1` (racemic) [compound 832196], the Ki was 22.9 nM.

As to `O=C(NCCCN1CCCC1)[C@@H]1C[C@H]1CN1CCC(c2noc3ccsc23)CC1` [compound 831272], the Ki was 6.22 nM.

Take `O=C(NCCCN1CCCCC1)[C@@H]1C[C@H]1CN1CCC(c2noc3ccc(C(F)(F)F)cc23)CC1` [A002200838]: the Ki is 0.807 nM.

On to `CC1CCC(NC(=O)C2CC2CN2CCN(Cc3ccccc3)CC2)CC1` (racemic) [compound 827202], for which the Ki was 177 nM.

Consider `C[C@H]1CC[C@H](NC(=O)[C@@H]2C[C@H]2CN2CCC(c3nn(C4CCCCC4)c4cc(C(F)(F)F)ccc34)CC2)CC1` [compound 833697], for which the Ki was 105 nM.

For the molecule `O=C([C@@H]1C[C@H]1CN1CCC(c2noc3ccsc23)CC1)N1CCC(Cn2ccnc2)CC1` [compound 831957], the Ki is 63.2 nM.

With `O=C(NCCCN1CCSCC1)[C@@H]1C[C@H]1CN1CCN(c2nn(-c3ccc(C(F)(F)F)cc3)c3ccsc23)CC1` [compound 834206], the inhibition constant Ki amounted to 88.8 nM.

As for `O=C(c1ccc(Cl)cc1)C1CCN(C(=O)C2CC2CN2CCC(c3noc4ccsc34)CC2)CC1` (racemic) [compound 831458], the Ki is 7.43 nM.

In the case of `O=C(C1CC1CN1CCC(c2noc3ccsc23)CC1)N1CCN(CCc2cccs2)CC1` (racemic) [compound 832049], the Ki came to 6.54 nM.

For the molecule `CC1CCC(NC(=O)C2CC2CN2CCN(c3n[nH]c4ccccc34)CC2)CC1` (racemic) [compound 830116], the Ki stood at 13.1 nM.

As for `C[C@H]1CC[C@H](NC(=O)[C@H]2C[C@@H]2CN2CCN(c3noc4ccsc34)CC2)CC1` [compound 831082], the Ki was 38.2 nM.

On to `Cn1nc(C2CCN(C[C@@H]3C[C@H]3C(=O)N3CCC[C@@H](Cn4ccnc4)C3)CC2)c2sccc21` [A002437352], for which the Ki came out at 1.22 nM.

Turning to `CN1CCC(N(C)C(=O)[C@@H]2C[C@H]2CN2CCN(c3csc4cc(C(F)(F)F)ccc34)CC2)CC1` [compound 832577], the Ki was 1.85 nM.

On to `O=C(NC1CCN(Cc2cc(F)ccc2Cl)CC1)C1CC1CN1CCC(c2noc3ccsc23)CC1` (racemic) [compound 832346], for which the Ki turned out to be 12.9 nM.

As to `O=C(NCCCc1ccccc1)[C@@H]1C[C@H]1CN1CCC(c2nn(-c3ccc(C(F)(F)F)cc3)c3ccccc23)CC1` [compound 831312], the Ki is 214 nM.

Consider `Cn1nc(C2CCN(C[C@@H]3C[C@H]3C(=O)NCCCN3CCCCC3)CC2)c2sccc21` [A002436290], for which the Ki was found to be 520 nM.

Take `Cn1nc(C2CCN(C[C@@H]3C[C@H]3C(=O)NCC3CCN(C(=O)OC(C)(C)C)CC3)CC2)c2sccc21` [A002438641]: the Ki turned out to be 62.8 nM.

Turning to `O=C(NCC1CCCNC1)[C@@H]1C[C@H]1CN1CCN(c2csc3cc(C(F)(F)F)ccc23)CC1` (mixture of isomers) [compound 832504], the inhibitory constant (Ki) came to 5.77 nM.

For `CCN1CCN(C(=O)N2CCC(NC(=O)C3CC3CN3CCC(c4noc5ccsc45)CC3)CC2)C(=O)C1=O` (racemic) [compound 832489], the Ki came to 95 nM.

In the case of `O=C(NCCCn1ccnc1)[C@@H]1C[C@H]1CN1CCN(c2n[nH]c3ccsc23)CC1` [compound 831315], the inhibitory constant (Ki) turned out to be 29.3 nM.

`O=C(NC1CCN(CC2CC2)CC1)[C@@H]1C[C@H]1CN1CCC(c2noc3ccsc23)CC1` [compound 833483]: the Ki is 0.93 nM.

Regarding `Cc1cc(NC(=O)C2CC2CN2CCC(c3noc4ccsc34)CC2)sn1` (racemic) [compound 829463], the inhibition constant Ki was found to be 4.76 nM.

`O=C(NC1CCN(Cc2cccc(F)c2)CC1)C1CC1CN1CCC(c2noc3ccsc23)CC1` (racemic) [compound 831994]: the Ki is 2.68 nM.

For `COc1ccc2[nH]nc(N3CCN(C[C@@H]4C[C@H]4C(=O)N[C@H]4CC[C@H](C)CC4)CC3)c2c1` [compound 833704], the Ki stood at 2.3 nM.

As for `O=C(NCCCc1cc[nH]c1)[C@@H]1C[C@H]1CN1CCN(c2csc3cc(C(F)(F)F)ccc23)CC1` [compound 832494], the Ki was determined as 25 nM.

On to `O=C(NCCCN1CCCCCC1)[C@@H]1C[C@H]1CN1CCN(c2csc3cc(C(F)(F)F)ccc23)CC1` [compound 832511], for which the Ki came to 12.3 nM.

In the case of `O=C(C1CC1CN1CCC(c2noc3ccsc23)CC1)N1CC=CC1` (racemic) [compound 829594], the Ki turned out to be 364 nM.

`O=C(NCC1CCNCC1)[C@@H]1C[C@H]1CN1CCC(c2noc3ccsc23)CC1` [compound 833386]: the Ki came to 36.5 nM.

For the molecule `O=C(NCCCn1cnc(Cl)c1Cl)[C@@H]1C[C@H]1CN1CCC(c2noc3ccsc23)CC1` [compound 831198], the Ki stood at 1.76 nM.

As to `C[C@H]1CC[C@H](NC(=O)[C@@H]2C[C@H]2CN2CCC(c3n[nH]c4ccc(C(F)(F)F)cc34)CC2)CC1` [compound 833934], the Ki was determined as 0.633 nM.

For the molecule `O=C(N[C@H]1CC[C@H](O)CC1)[C@@H]1C[C@H]1CN1CCC(c2nn(-c3ccc(C(F)(F)F)cc3)c3ccccc23)CC1` [compound 831953], the Ki stood at 37.4 nM.

Take `CC1(C)CC(NC(=O)C2CC2CN2CCC(c3noc4ccsc34)CC2)CC(C)(C)N1` (racemic) [compound 832187]: the Ki is 19.1 nM.

Consider `C[C@H]1CC[C@H](NC(=O)[C@@H]2CC[C@H]2CN2CCCN(c3noc4ccsc34)CC2)CC1` (racemic) [compound 830000], for which the Ki stood at 286 nM.

Regarding `O=C(NCCCn1ccnc1)[C@@H]1C[C@H]1CN1CCN(c2nn(-c3ccccc3)c3ccsc23)CC1` [compound 832592], the inhibitory constant (Ki) amounted to 7.29 nM.

`CC1CCN(CCCNC(=O)[C@@H]2C[C@H]2CN2CCN(c3nn(-c4ccc(OC(F)(F)F)cc4)c4ccsc34)CC2)CC1` [compound 834207]: the Ki turned out to be 71.4 nM.

Consider `COc1ccc(N2CCN(CC3CC3C(=O)NC3CCC(C)CC3)C(C)C2)cc1` (racemic) [compound 827192], for which the Ki came to 150 nM.

On to `CC(C)(C)c1ccc(CCNC(=O)C2CC2CN2CCC(c3noc4ccsc34)CC2)cc1` (racemic) [compound 832046], for which the Ki was determined as 35.5 nM.

`COc1cccc2c(C3CCN(C[C@@H]4C[C@H]4C(=O)NCCCN4CCCCC4)CC3)nn(C)c12` [compound 834056]: the Ki worked out at 93.2 nM.

With `Cn1nc(N2CCN(C[C@@H]3C[C@H]3C(=O)N3CCC(n4ccnc4)CC3)CC2)c2sccc21` [compound 832207], the Ki stood at 54.8 nM.

Turning to `O=C(NCCCN1CCOCC1)C1(CCN2CCN(c3csc4cc(C(F)(F)F)ccc34)CC2)CC1` [compound 832518], the inhibitory constant (Ki) was determined as 98.2 nM.

As to `COc1c(F)ccc2c(C3CCN(C[C@@H]4C[C@H]4C(=O)N[C@H]4CC[C@H](C)CC4)CC3)noc12` [compound 831361, 2R-[4-(6-Fluoro-7-methoxy-benzo[d]isoxazol-3-yl)-piperidin-1-ylmethyl]-1R-cyclopranecarboxylic acid (trans-4-methyl-cyclohexyl)-amide], the Ki worked out at 1.75 nM.

With `O=C(NC1CCN(C(=O)c2ccc(Cl)s2)CC1)C1CC1CN1CCC(c2noc3ccsc23)CC1` (racemic) [compound 832487], the Ki was 66.1 nM.

For the molecule `Cn1nc(C2CCN(C[C@@H]3C[C@H]3C(=O)N[C@H]3CC[C@H](C)CC3)CC2)c2ccc(Br)cc21` [compound 833693], the Ki worked out at 18.4 nM.

`O=C(NCCc1cccc(F)c1)C1CC1CN1CCC(c2noc3ccsc23)CC1` (racemic) [compound 831801]: the Ki worked out at 11.2 nM.

Turning to `O=C(NCCCn1ccnc1)[C@@H]1C[C@H]1CN1CCC(c2cc3ccccc3s2)CC1` [compound 831488], the Ki stood at 0.725 nM.

Take `COc1ccc(C2=CCN(C(=O)C3CC3CN3CCC(c4noc5ccsc45)CC3)CC2)cc1` (racemic) [compound 831599]: the Ki was 49.8 nM.

As for `COCCN1CCN(C(=O)C2CC2CN2CCC(c3noc4ccsc34)CC2)CC1` (racemic) [compound 832190], the Ki was 94.6 nM.

For the molecule `CC(C)(C)OC(=O)N1CC[C@@H](CNC(=O)[C@@H]2C[C@H]2CN2CCC(c3noc4ccsc34)CC2)C1` [compound 833373], the Ki is 65.5 nM.

On to `C[C@H]1CC[C@H](NC(=O)[C@@H]2CC[C@H]2CN2CCN(c3noc4ccsc34)CC2)CC1` (racemic) [compound 829996], for which the Ki came to 277 nM.

`O=C(NC1CCN(Cc2ncc[nH]2)CC1)[C@@H]1C[C@H]1CN1CCN(c2csc3cc(C(F)(F)F)ccc23)CC1` [compound 832583]: the Ki turned out to be 1.61 nM.

Consider `CC1CCC(NC(=O)C2CC2CN2CCN(c3noc4ccsc34)CC2)CC1` (racemic) [compound 830127], for which the Ki stood at 1.66 nM.

In the case of `COc1ccc2c(c1)c(N1CCN(C[C@@H]3C[C@H]3C(=O)N3CCN(C(C)C)CC3)CC1)nn2C` [compound 833122], the Ki came to 52.9 nM.

With `O=C(NC1CCN(Cc2ccc3ccccc3c2)CC1)C1CC1CN1CCC(c2noc3ccsc23)CC1` (racemic) [compound 831818], the inhibitory constant (Ki) was found to be 0.117 nM.

Regarding `Cc1ccc(CN2CCC(NC(=O)[C@@H]3C[C@H]3CN3CCC(c4noc5ccsc45)CC3)CC2)cc1` [compound 833482], the Ki is 0.962 nM.

Take `CN1CCN(CCCNC(=O)[C@@H]2C[C@H]2CN2CCC(c3nn(-c4ccccc4)c4ccsc34)CC2)CC1` [A002439263]: the Ki was found to be 30.6 nM.

The values are drawn from US7772252B2, “Heterocyclic substituted carbonyl derivatives and their use as dopamine D3 receptor ligands” (Aventis Pharmaceuticals Inc., priority 2001, dated 2010).
